Earlier results on three molecules are cited in patent US20230364026A1, “[…] NANOPARTICLE FORMULATIONS OF CANNABINOIDS AND C[…] WITH REDUCED OSTWALD RIPENING FOR ORAL, INHALATION, NASAL AND […] DELIVERY” (Luminus Biosciences, Inc., priority 2020, published 2023).

The conditions of data set [1]: pH values ranging from 1.2 to 7.0.
The conditions of data set [2]: administered orally, human gastrointestinal tract.
The conditions of data set [3]: self-experiment, compared to THC.

Consider `CCCCCCC(C)(C)c1cc(O)c2c(c1)OC(C)(C)C1CCC(=O)CC21` (racemic) [Nabilone, (±)-trans-3-(1,1-dimethylheptyl)-6,6a,7,8,10,10a-hexahydro-1-hydroxy-6-6-dimethyl-9H-dibenzo[b,d] pyran-9-one], for which the solubility in water result in data set [1] is listed as “less than 0.5 mg/L”. For the same molecule, the oral absorption entry in data set [2] was “completely absorbed”. Turning to `CCCCCCCC(C)(C)c1ccc([C@H]2CCC[C@@H](O)C2)c(O)c1` [CP 47,497-C8], in data set [3], the “duration of effects in humans” value is 5 to 6 h.

Turning to `CCCCCn1cc(C(=O)c2cccc3ccccc23)c2ccccc21` [JWH-018], in data set [3], the “duration of effects in humans” value was 1 to 2 h.
